Consider ten compounds from US20060135415A1, “Immunomodulation and effect on cell processes relating to serotonin family receptors and the blood-brain barrier” (priority 2002, published 2006).

Each structure is given as a SMILES string. Entries after “also recorded” stand apart in the source; their conditions may differ.

In test [1] the test system is ConA stimulated human lymphocytes. The test can be described thus: Human mitogenic (ConA) stimulation, 3H-thymidine incorporation. The test is classed as cell-based. Conditions: for activation / proliferative response: 5 μg/ml ConA, harvest 72 hours, drug titration (FIGS. 7A, 8A, 9A, 17, 33). How it is done:
Blood from healthy volunteers was drawn using venipuncture, using Vacutainer collection sets and heparinized collection vials. The blood was diluted 1:1 using HBSS to a total volume of 30 ml in 50 ml conical tubes (Fisher Scientific, Co., Pittsburgh, Pa.). […] Cells from the buffy coats were collected and the residual Histopaque was washed away using repeated centrifugations in HBSS. After washes, cells were resuspended at 5 million cells per ml in RPMI, supplemented with 2% FBS. To remove adherent cells, the suspension was plated onto a 6 well flat-bottom plate (Corning Costar), 3 ml/well, and incubated for 2 hours at 37° C., 5% CO2. Non-adherent cells were harvested after this incubation, were counted and resuspended in RPMI supplemented with 10% human serum (Sigma).
All drugs were pre-plated before the cell suspension was added onto each well of a 96-well round-bottom plate. All experimental conditions were assayed in at least triplicate. Cells suspended in RPMI supplemented with 10% human serum were plated at 100,000 cells per well to a final volume of 200 μl. […] Control samples received no ConA stimulation. The plates were incubated at 37° C. and 5% CO2.

Test [2] relates to allogeneic stimulation of human lymphocytes. In words: Human mixed lymphocyte reaction (allogeneic stimulation), 3H-thymidine. Conditions: allogeneic stimulation, harvest 120 hours, drug titration (FIGS. 7B, 8B, 9B). The test is classed as cell-based. The text has this:
Blood from two healthy, non-related, donors was taken as described above. Peripheral blood mononuclear cells were isolated as described previously elsewhere. The adherent cells were separated from the suspension cells as described previously for both donors. Suspension cells from both donors (donors A and B) were used as responders. The remaining adherent cells from each of the donors were used as stimulators against a different donor (suspension A against adherent B and adherent A against suspension B). The stimulator cells were irradiated at 35 Gy. Drugs were pre-plated onto 96 well, U-bottom plates in triplicate. 200,000 “stimulator” cells in RPMI supplemented with 10% human serum were then plated in each well. 200,000 “responder” cells in the same medium were then plated over stimulators to a final volume of 200 μl/well. Background controls received either no stimulator cells, or no responder cells. The plates were incubated at 37° C. and 5% CO2. 1 μCi of tritiated thymidine was added to each well after 4.5 days, and the plates were harvested 12 hours later.

Test [3] relates to RPMI 8226 multiple myeloma cells. The test can be described thus: RPMI 8226 cell viability and proliferation (trypan blue, MTT, 3H-thymidine). The class given is cell-based, human. Conditions: 3H-thymidine uptake, drug titration (FIGS. 19-25, 31, 32). How it is done:
The human plasmacytoma (multiple myeloma) cell line, RPMI 8226 (American Type Culture Collection, Manassas, Va.), was cultured in RPMI 1640 supplemented with 10 mM HEPES, 1 mM sodium pyruvate, 4.5 g/L glucose, 1.5 g/L bicarbonate and 20% FBS (non-heat inactivated).
Cell proliferation was assayed by three methods—Trypan Blue Exclusion was used to quantify the number of viable cells in culture; 3-(4,5-dimethylthiazol-2-yl)-2,5-diphenyl tetrazolium bromide (MTT) reduction was used to assay mitochondrial activity (and thus cell viability); and ^3H-Thymidine uptake was employed to assay for active DNA synthesis.
Three separate indicators of cell proliferation were employed to study the effects of 5-HT receptor modulating agents on the human multiple myeloma cell line, RPMI 8226. Cells were plated at 4 separate densities and were treated with LY53587 (an antagonist of the 5-HT2A/2B/2C receptors) at a range of concentrations. The exclusion of trypan blue dye was used as an indicator of cell viability. Cell numbers were then plotted against the concentration of drug added.
MTT reduction was also used as an indicator of cell viability (more specifically, mitochondrial activity). Absorbance values at OD570 were then plotted against drug concentration. Finally, DNA synthesis was assayed, through the measurement of ^3H-thymidine uptake, and counts per minute (CPMs) were plotted against drug concentration.
Culturing and administration of drugs and ^3H-thymidine were performed as described elsewhere herein.

The test system of test [4] is allogeneic CTL response against P815 cells. The test can be described thus: Murine allograft model, CTL killing of P815 target cells by splenocytes. The class given is in vivo, C57BL/6J mice. Conditions: Cyclosporin A 100 μg ip daily from day −2; for allograft (CTL) response: 5HT antagonists 200 μg/injection tail vein days 6 and 8, sacrifice day 14 (FIGS. 13, 14); for allogeneic killing response: serotonin-specific compounds 300 μg/injection tail vein days 5 and 7, sacrifice day 14 (FIGS. 18A, 18B). How it is done:
The in vivo validation screen used was an art-recognized murine allogeneic rejection model as described in Zhan et al., 2000. For this assay, a complete MHC miss-match system was employed wherein 5×10^6 P815 cells ([H-2^d] DBA/2 mastocytoma) were injected into the peritoneal cavity of C57BL/6J (H-2^b) mice on day 0 of the experiment. These mice typically generate a strong cytotoxic T lymphocyte (CTL) reaction in response to P815 cells. Following the initial P815 cell inoculation, the mice were allowed to develop a CTL response (this usually takes about 10-14 days). […] Mice were then sacrificed on day 14 of the experiment as indicated in the figures; and the allogeneic CTL response was assayed as described previously (Tretiakova et al., 2000, Nature Biotechnology 18:984-988). The primary spleen cells from the treated and untreated animals were used in the direct CTL readout. Freshly obtained primary spleen cells were incubated with the [^3H] labeled target cells (P815 cells) at 100:1, 50:1, 25:1, and 12.5:1 ratios for 3.5 hours at 37° C. and harvested using a PHD harvester. The percentage of specific killing was determined using the formula % kill=(S−E)/S, where S is the amount of the DNA retained by the target cells in the absence of the effector cells and E is the amount of retained DNA in the presence of the effector cells (expressed in counts per minute; cpm).
This is an art-recognized model of allograft […] rejection based on that described by […]. (2000). In this model, there is a complete MHC mismatch between the P815 cells (H-2^d) and the C57BL6 mouse (H-2^b), thus ensuring an aggressive immune response. The data disclosed in FIG. 13, depicts results of experiments that included 6 treatment groups, each group consisting of three mice. Each mouse received 5×10^6 P815 cells injected into the peritoneal cavity on day 0 of the study. The first group was an untreated control group, which was used to establish the baseline response of the mice against the allogeneic stimulus. These mice, without any further treatments, were sacrificed, as were the other treatment groups, on day 14 of the study and their splenocytes assayed for target-specific killing of the P815 cells.
The average kill observed for the untreated group was about 45% at an effector to target ratio of 100:1. The second group was treated with risperidone, a 5HT-2 antagonist, administered via a tail vein bolus injection (200 μg/injection) on days 6 and 8 of the study. The timing of the drug administration was selected to ensure that the T cells were fully activated prior to the drug treatment. The third group was treated with propanolol, a 5HT-1 antagonist. All of the 5HT receptor antagonist-treated groups were treated as described for the risperidone-treated group. The fourth group was treated chronically with CyclosporinA. The Cyclosporin A was administered ip at a dosage of 100 μg/injection starting two days prior to the onset of the study, i.e., at day −2, and the injections were continued on a daily basis for the duration of the study.
Finally, studies conducted in vivo using the CD8-dependent allograft rejection model, in which P815 cells (a rapidly growing cell line taken from a mastocytoma in a DBA mouse), were expanded and used to create a robust rejection response in a C57BL6 mouse. In this study the mice received 5×10^6 P815 cells injected into their peritoneal cavity on day 0 of the study. The first group was an untreated control group (naïve animals), used to acquire the baseline response of the mice against the allogeneic stimulus. The positive controls were treated with the allogeneic cells without any further treatments. These animals were used to assess the induced allogeneic response against the P815 cells. […]

For test [5], the system named is RPMI-8226 cells. The test can be described thus: Cytospin histochemistry (H&E, bis-benzamide) for chromatin. The conditions noted are these: 9 hour treatments; 50 μM SB compounds, 2 μM camptothecin (FIGS. 28, 29). The class given is cell-based, human. The method, then: 2.0×10^5 RPMI-8226 cells were cultured, in 6-well culture plates, in the presence of the indicated drug concentrations, in a total of 5 mL RPMI-1640 supplemented with 10% FBS. Each well was harvested in its entirety and divided into two identical samples for cytospins.
1.0×10^5 RPMI-8226 cells from each treatment group were loaded into Cyto-funnels and centrifuged at 500 rpm for 4 minutes with medium acceleration. Slides were then fixed through graded methanol in PBS (100%, 5 minutes; 80%, 5 minutes; 50%, 5 minutes), washed for 5 minutes in PBS and stored in PBS at 4° C. until stained.
Cytospun slides were stained with Hematoxylin and Eosin, followed by the nuclear stain, bis-benzamide, rinsed and mounted according to standard staining protocols. Slides were visualized under both brightfield and fluorescent light to generate matched images of the same slide field (see, e.g., FIGS. 28 and 29).

As for `CC(O)C(C)OC(=O)[C@@H]1C[C@@H]2c3cccc4c3c(cn4C(C)C)C[C@H]2N(C)C1` (stereo partly drawn) [LY 53857], the “activation / proliferative response” value in test [1] and in test [2] was “inhibit the activation response at pharmacologically relevant concentrations” in each case.

Regarding `N[C@@H](Cc1c[nH]c2ccc(O)cc12)C(=O)O` [5-hydroxytryptophan], the proliferation response entry in test [1] (25 μM, in the absence of PCPA (FIG. 3)) is “significantly enhanced the proliferation response”. In addition, the “reversal of PCPA inhibition of mitogenic response” value in test [1] (added to PCPA-inhibited cells (FIG. 3)) is reported as “this inhibition can be reversed”.

On to `CSc1ccc2c(c1)C(N1CCN(C)CC1)Cc1ccccc1S2` (stereo not drawn) [methiothepin], for which the “growth / proliferation of RPMI 8226 cells” value in test [3] is reported as “strong inhibition of growth”. The “activation / proliferative response” value in test [1] and in test [2] was “inhibit the activation response at pharmacologically relevant concentrations” each time.

Take `Cn1ccc2cc3c(cc21)CCN3C(=O)Nc1cccnc1` [SB 206553]: in test [1], the “activation / proliferative response” value is “inhibit the activation response at pharmacologically relevant concentrations” and the “in vitro activation / proliferation of (helper) T cells” value is given as “immediate cessation of proliferation”. The “activation / proliferative response” value in test [2] is reported as “inhibit the activation response at pharmacologically relevant concentrations”. In addition, in test [4], the “allograft (CTL) response” value is listed as “Two of the treated mice had the allogeneic response completely suppressed; also recorded: Two of the three treated mice inhibited the allograft response to a degree equivalent to that observed in the Cyclosporin A-treated animals” and the allogeneic killing response result is “striking”. The “allograft (CTL) response” value in test [4] (listed as SB206553) is given as “inhibited the allograft response to varying degrees”.

As to `CC[C@@H](CO)NC(=O)[C@@H]1C=C2c3cccc4c3c(cn4C)C[C@H]2N(C)C1` [methysergide], in test [4], the “allograft (CTL) response” value was “inhibited the allograft response to varying degrees” and the allogeneic killing response result is “complete inhibition of the induced killing response; also recorded: abrogated the allogeneic killing response; also recorded: inhibition profile was striking”.

Regarding `COc1ccccc1N1CCN(CCN(C(=O)C2CCCCC2)c2ccccn2)CC1` [WAY 100635], the “in vitro activation / proliferation of (helper) T cells” value in test [1] is given as “significantly inhibits the activation response”.

For the compound `N[C@@H](Cc1ccc(Cl)cc1)C(=O)O` (racemic) [PCPA, para-chlorophenylalanine], in test [1] (human PBLs, 1 μg/ml ConA, PCPA titration (FIG. 3)), the mitogenic response result was “inhibits the mitogenic response in a dose-dependent manner”.

For the compound `NNCCc1ccccc1` [phenelzine], the “drug concentration giving significant inhibition” value in test [1] (0.1 and 1 μg/ml ConA (FIGS. 5A, 5B)) was 10 to 100 µM. For the same compound, the “drug concentration at which full inhibition occurs” value in test [1] (higher ConA stimulation (10 μg/ml)) lay in the range of 100 to 400 µM. Moreover, the proliferative response result in test [1] (highest ConA dose 10 μg/ml, harvest 72 hours (FIG. 5C)) was “no inhibition was observed”. For the same compound, the “stimulation of ConA-activated human PBLs” value in test [1] (reagents at 400 μM, time course (FIG. 4)) is given as “completely shut down the stimulation”.

As to `CC[C@@]1(O)C(=O)OCc2c1cc1n(c2=O)Cc2cc3ccccc3nc2-1` [camptothecin], the “chromatin condensation / fragmentation (apoptosis)” value in test [5] was “Extensive chromatin condensation and nuclear fragmentation”.

With `OC(CN1CCN(c2cccc(Cl)c2)CC1)C(c1ccccc1)c1ccccc1` (stereo not drawn) [BRL 15572], the “activation / proliferative response” value in test [1] and in test [2] was “had no effect upon the proliferative response” each time.
